Source: patent publication US11724992B2 (Novartis AG, priority 2017, dated 2023)

Test system: IL-1β production in PMA-differentiated THP-1 cells
Assay: IL-1β production in PMA-differentiated THP-1 cells stimulated with gramicidin (hTHP-1 assay, 2% fetal bovine serum; Procedures 1-3)
Assay type: cell-based, human
Conditions: hTHP-1 assay containing 2% fetal bovine serum; class symbols; read-out: hTHP-1 IC50 (Average IC50 of compounds in hTHP-1 assay)
Procedure, shortened: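 PMA-differentiated (20 ng/ml, 16-18 h) THP-1 cells in RPMI with 2% FBS, 50,000 cells/well, preincubated 1 h with compound (final 100–0.0017 μM, 0.37% DMSO), then stimulated with 5 μM gramicidin for 2 h. Supernatant IL-1β measured by HTRF.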

Row | SMILES | IC50
1 | [2H]C([2H])([2H])C(O)(c1ncc([S@](N)(=O)=NC(=O)Nc2c3c(cc4c2CCC4)CCC3)s1)C([2H])([2H])[2H] [Example 393, (R)-N′-((1,2,3,5,6,7-hexahydro-s-indacen-4-yl)carbamoyl)-2-(2-hydroxypropan-2-yl-1,1,1,3,3,3-d6)thiazole-5-sulfonimidamide] | 8 to 40 nM
2 | [2H]C([2H])([2H])C(O)(c1ncc([S@@](N)(=O)=NC(=O)Nc2c3c(cc4c2CCC4)CCC3)s1)C([2H])([2H])[2H] [Example 394, (S)-N′-((1,2,3,5,6,7-hexahydro-s-indacen-4-yl)carbamoyl)-2-(2-hydroxypropan-2-yl-1,1,1,3,3,3-d6)thiazole-5-sulfonimidamide] | 200 to 1000 nM
